Measurements: patent US4582822A, “Antibiotic A80190, pharmaceutical compositions containing same and method of use” (Eli Lilly and Company, priority 1984, dated 1986)
Converted amounts (≈) assume the structure as drawn. “And” between values parts separate entries of the source, which are not always exact repeats. Equal values may be shown once.

Legend:
A. macra = experiment: Resistance to antibiotics, sensitivity discs on seeded agar; type: cell-based, Actinomadura macra
Description: (§1) Resistance to antibiotics was measured by padding antibiotic sensitivity discs onto the surface of seeded ISP No. 2 agar plates.
(§2) Table III lists the resistance of the strain to various antibiotics at the concentrations indicated and compares it to that of A. macra.

NRRL 15878 = experiment: as above; type: cell-based, Actinomadura oligospora
Description: as §1, §2

[1] = test system: Bacteroides corrodens 1874; experiment: Agar-dilution MIC, anaerobic bacteria; type: cell-based; settings: 24-hour incubation
Description: (§3) One important aspect of the antimicrobial activity of A80190 compounds relates to their activity against anaerobic bacteria. The minimal inhibitory concentrations (MIC's) at which A80190 inhibits various anaerobic bacteria, as determined by standard agar-dilution assay, are summarized in Table VII. End points were read after 24-hour incubation.

[2] = test system: Bacteroides melaninogenicus 2736; experiment: Agar-dilution MIC, anaerobic bacteria; type: cell-based; settings: 24-hour incubation
Description: as §3

[3] = test system: Clostridium septicum 1128; experiment: Agar-dilution MIC, anaerobic bacteria; type: cell-based; settings: 24-hour incubation
Description: as §3

[4] = test system: Bacteroides melaninogenicus 1856/28; experiment: Agar-dilution MIC, anaerobic bacteria; type: cell-based; settings: 24-hour incubation
Description: as §3

[5] = test system: Bacteroides fragilis 1877; experiment: Agar-dilution MIC, anaerobic bacteria; type: cell-based; settings: 24-hour incubation
Description: as §3

Bacteroides fragilis 111 = experiment: Agar-dilution MIC, anaerobic bacteria; type: cell-based; settings: 24-hour incubation
Description: as §3

[6] = test system: Clostridium difficile 2994; experiment: Agar-dilution MIC, anaerobic bacteria; type: cell-based; settings: 24-hour incubation
Description: as §3

[7] = test system: Bacteroides thetaiotaomicron 1438; experiment: Agar-dilution MIC, anaerobic bacteria; type: cell-based; settings: 24-hour incubation
Description: as §3

[8] = test system: Bacteroides fragilis 1936B; experiment: Agar-dilution MIC, anaerobic bacteria; type: cell-based; settings: 24-hour incubation
Description: as §3

[9] = test system: Fusobacterium symbiosum 1470; experiment: Agar-dilution MIC, anaerobic bacteria; type: cell-based; settings: 24-hour incubation
[10] = test system: Peptostreptococcus intermedius 1624; experiment: Agar-dilution MIC, anaerobic bacteria; type: cell-based; settings: 24-hour incubation
mitochondrial ATPase = experiment: Inhibition of mitochondrial ATPase in vitro; type: biochemical
Excerpt: In yet another aspect, the A80190 compounds are active as inhibitors of the enzyme ATPase. ATPase, an alkali-metal-sensitive enzyme found in cell membranes, is involved in the energy necessary for active transport. "Active transport" refers to the energy requiring series of operations whereby intracellular and extracellular fluids maintain their compositions. Inhibitors of ATPase reduce the energy required for active transport. In vitro tests have shown that A80190 inhibits mitochondrial ATPase with a half-effective concentration (IC50) of 0.5 μg/ml.

adult housefly = experiment: Insecticidal activity; settings: in vivo
Candida albicans = experiment: Disc-diffusion, zone of inhibition; type: cell-based; settings: 6-mm pads dipped in 1 mg/ml
Description: (§4) The inhibitory activity of A80190 is illustrated in Table VI. Activity was measured by the conventional disc-diffusion method (6-mm pads were dipped in solutions containing 1 mg of compound per ml of solution; pads were placed on agar plates seeded with test organism).

Bacillus subtilis = experiment: Disc-diffusion, zone of inhibition; type: cell-based; settings: 6-mm pads dipped in 1 mg/ml
Description: as §4

Staphylococcus aureus = experiment: Disc-diffusion, zone of inhibition; type: cell-based; settings: 6-mm pads dipped in 1 mg/ml
Description: as §4

[11] = test system: Saccharomyces pastorianus; experiment: Disc-diffusion, zone of inhibition; type: cell-based; settings: 6-mm pads dipped in 1 mg/ml
Description: as §4

Micrococcus luteus = experiment: Disc-diffusion, zone of inhibition; type: cell-based; settings: 6-mm pads dipped in 1 mg/ml
Description: as §4

Neurospora crassa = experiment: Disc-diffusion, zone of inhibition; type: cell-based; settings: 6-mm pads dipped in 1 mg/ml
Description: as §4

Mycobacterium avium = experiment: Disc-diffusion, zone of inhibition; type: cell-based; settings: 6-mm pads dipped in 1 mg/ml
Description: as §4

[12] = test system: Bacteroides vulgatis 1211; experiment: Agar-dilution MIC, anaerobic bacteria; type: cell-based; settings: 24-hour incubation
[13] = test system: Peptostreptococcus anaerobius 1428; experiment: Agar-dilution MIC, anaerobic bacteria; type: cell-based; settings: 24-hour incubation
mosquito larvae = experiment: Insecticidal activity; settings: in vivo
[14] = test system: Peptococcus asaccharolyticus 1302; experiment: Agar-dilution MIC, anaerobic bacteria; type: cell-based; settings: 24-hour incubation
Mexican bean beetle = experiment: Insecticidal activity; settings: in vivo
pigweed = experiment: Herbicidal activity; type: in vivo; settings: 200 gpa; either pre-emergence or post-emergence
blowfly larvae = experiment: Insecticidal activity; settings: in vivo
[15] = test system: Fusobacterium necrophorum 6054A; experiment: Agar-dilution MIC, anaerobic bacteria; type: cell-based; settings: 24-hour incubation
southern armyworm = experiment: Insecticidal activity; settings: in vivo
Caenorhabditis elegans = experiment: Anthelmintic activity; settings: in vivo
crabgrass = experiment: Herbicidal activity; type: in vivo; settings: 200 gpa; either pre-emergence or post-emergence
Eimeria tenella = experiment: In vitro tissue culture screen, anticoccidial; type: cell-based; design: key: C: cytotoxic; A: active; S: slightly active; N: not active
Excerpt: Anticoccidial activity is an important property of the A80190 compounds. Table VIII summarizes the results of an in vitro tissue culture screen of A-80190 compounds vs. Eimeria tenella.

Solubility = type: physicochemical
Excerpt: (§5) Antibiotic A80190 has been assigned structure 1 based on X-ray crystallographic studies. A80190 (in its free acid form) has the following characteristics: […]

mustard = experiment: Herbicidal activity; type: in vivo; settings: 200 gpa; either pre-emergence or post-emergence
Petococcus prevoti 1281 = experiment: Agar-dilution MIC, anaerobic bacteria; type: cell-based; settings: 24-hour incubation
Polio III virus = type: cell-based; settings: tissue culture
two-spotted spider mite = experiment: Acaricidal activity; settings: in vivo
[16] = test system: Eubacterium aerofaciens 1235; experiment: Agar-dilution MIC, anaerobic bacteria; type: cell-based; settings: 24-hour incubation
[17] = pKa in 66% aqueous dimethylformamide; type: physicochemical
Excerpt: as §5

[18] = test system: Propionibacterium acnes 79; experiment: Agar-dilution MIC, anaerobic bacteria; type: cell-based; settings: 24-hour incubation
[19] = test system: natural and artificial membranes; experiment: Cation permeability of membranes
[20] = test system: volatile-fatty-acid (VFA) production, rumen; experiment: Ruminant feed-utilization efficiency, VFA ratio treated/control flasks
Excerpt: The efficiency of feed use can be monitored by observing the production and concentration of propionate compounds in the rumen using the method described by Arthur P. Raun in U.S. Pat. No. 3,794,732 (see especially Example 5).

Treponema hyodysenteriae = experiment: Growth inhibition, swine dysentery agent; type: cell-based
[21] = Ionophorous (ion-transport) activity with cations
[22] = test system: Clostridium perfringens 81; type: cell-based; settings: 24-hour incubation

Compound: NC[C@@H]1O[C@H](O[C@H]2[C@@H](O)[C@H](O[C@@H]3[C@@H](O)[C@H](N)C[C@H](N)[C@H]3O[C@H]3O[C@H](CN)[C@@H](O)[C@H](O)[C@H]3N)O[C@@H]2CO)[C@H](N)[C@@H](O)[C@@H]1O [Neomycin]
- Resistance to Antibiotics (A. macra; 30 μg): -
- Resistance to Antibiotics (NRRL 15878; 30 μg): -

Compound: CC[C@@H](O)[C@]1(C)C[C@H](C)[C@@](O)([C@H]2C[C@H](C)[C@H]([C@]3(C)C[C@@H](O[C@H]4CC[C@H](OC)[C@@H](C)O4)[C@H]([C@@H]4CC[C@@]5(O[C@H]([C@@H](C)[C@@H](OC)[C@H](C)C(=O)O)[C@H](C)[C@@H](OC)[C@H]5C)O4)O3)O2)O1 [A80190]
- MIC [1]: > 128 µg/mL
- MIC [2]: > 128 µg/mL
- MIC [3]: < 0.5 µg/mL
- MIC [4]: > 128 µg/mL
- MIC [5]: > 128 µg/mL
- MIC (Bacteroides fragilis 111): > 128 µg/mL
- MIC [6]: < 0.5 µg/mL
- MIC [7]: > 128 µg/mL
- MIC [8]: > 128 µg/mL
- MIC [9]: 8 µg/mL (≈ 9.65 µM)
- MIC [10]: 1 µg/mL (≈ 1.21 µM)
- half-effective concentration (IC50) (mitochondrial ATPase): 0.5 µg/mL
- active at levels as low as (adult housefly): 35 ppm
- Zone of Inhibition (Candida albicans): 14 mm diameter
- Zone of Inhibition (Bacillus subtilis): 23 mm diameter
- Zone of Inhibition (Staphylococcus aureus): 17 mm diameter
- Zone of Inhibition [11]: 10 mm diameter
- Zone of Inhibition (Micrococcus luteus): 20 mm diameter
- Zone of Inhibition (Neurospora crassa): 14 mm diameter
- Zone of Inhibition (Mycobacterium avium): 21 mm diameter
- MIC [12]: 16 µg/mL (≈ 19.3 µM)
- MIC [13]: 1 µg/mL (≈ 1.21 µM)
- active at levels as low as (mosquito larvae): < 50 ppm
- MIC [14]: 1 µg/mL (≈ 1.21 µM)
- active at levels as low as (Mexican bean beetle): < 100 ppm
- active at (application rate) (pigweed): 2 lb/acre
- active at levels as low as (blowfly larvae): 35 ppm
- MIC [15]: 16 µg/mL (≈ 19.3 µM)
- active at levels as low as (southern armyworm): < 100 ppm
- active at levels as low as (Caenorhabditis elegans): 20 ppm
- active at (application rate) (crabgrass): 2 lb/acre
- Activity vs. Eimeria tenella In Vitro (Eimeria tenella; 0.008 μg/ml): A
- Activity vs. Eimeria tenella In Vitro (Eimeria tenella; 0.04 μg/ml): A
- Activity vs. Eimeria tenella In Vitro (Eimeria tenella; 0.2 μg/ml): A
- Activity vs. Eimeria tenella In Vitro (Eimeria tenella; 1 μg/ml): C
- Activity vs. Eimeria tenella In Vitro (Eimeria tenella; 5 μg/ml): C
- Solubility (Solubility; organic solvents): soluble in lower alcohols such as methanol, ketones such as acetone, esters such as ethyl acetate, halogenated hydrocarbons such as chloroform and hydrocarbons such as diethyl ether, benezene, toluene and warm hexane
- Solubility (Solubility; water): Insoluble in water
- active at (application rate) (mustard): 2 lb/acre
- MIC (Petococcus prevoti 1281): < 0.5 µg/mL
- active at a level of (Polio III virus): 2000 µg/mL
- active when applied at a rate as low as (two-spotted spider mite): 25 ppm
- MIC [16]: < 0.5 µg/mL
- pKa [17]: 6.2
- MIC [18]: 1 µg/mL (≈ 1.21 µM)
- cation permeability [19]: alters the cation permeability of both natural and artificial membranes
- Molar % Acetate (ratio treated/control) ([20]; 0.3 mcg/ml): 0.970
- Molar % Butyrate (ratio treated/control) ([20]; 0.3 mcg/ml): 0.819
- Molar % Propionate (ratio treated/control) ([20]; 0.3 mcg/ml): 1.220
- Total VFA/Control VFA ([20]; 0.3 mcg/ml): 0.967 mM/L
- Molar % Acetate (ratio treated/control) ([20]; 1 mcg/ml): 0.986 and 0.892 and 1.016 and 0.926
- Molar % Butyrate (ratio treated/control) ([20]; 1 mcg/ml): 0.851 and 0.813 and 0.706 and 0.529
- Molar % Propionate (ratio treated/control) ([20]; 1 mcg/ml): 1.185 and 1.403 and 1.247 and 1.566
- Total VFA/Control VFA ([20]; 1 mcg/ml): 0.916 mM/L and 0.887 mM/L and 0.857 mM/L and 0.913 mM/L
- Molar % Acetate (ratio treated/control) ([20]; 3 mcg/ml): 0.998
- Molar % Butyrate (ratio treated/control) ([20]; 3 mcg/ml): 0.611
- Molar % Propionate (ratio treated/control) ([20]; 3 mcg/ml): 1.368
- Total VFA/Control VFA ([20]; 3 mcg/ml): 0.963 mM/L
- inhibits the growth at levels as low as (Treponema hyodysenteriae): 0.39 µg/mL
- ionophorous effect, cation preference ([21]; 0.2 μg/ml, Cs+ vs Na+): even greater ionophorous effect with Cs^+ than with Na^+ as cation
- ionophorous activity ([21]; 0.5 μg/ml): showed ionophorous activity
- ionophorous activity, cation preference ([21]; 0.5 μg/ml, Na+, K+ and Rb+ vs Cs+ or Li+): activity with Na^+, K^+ and Rb^+ was better than that with Cs^+ or Li^+
- MIC [22]: < 0.5 µg/mL

Compound: NC[C@H]1O[C@H](O[C@H]2[C@H](O)[C@@H](O[C@H]3O[C@H](CO)[C@@H](O)[C@H](N)[C@H]3O)[C@H](N)C[C@@H]2N)[C@H](N)C[C@@H]1O [Tobramycin]
- Resistance to Antibiotics (A. macra; 10 μg): -

Compound: Oleandomycin
- Resistance to Antibiotics (NRRL 15878; 15 μg): -

Compound: CCC[C@@H]1C[C@@H](C(=O)N[C@@H]([C@H]2O[C@H](SC)[C@H](O)[C@@H](O)[C@H]2O)[C@@H](C)O)N(C)C1 [Lincomycin]
- Resistance to Antibiotics (A. macra; 2 μg): +
